# Test results as given in patent publication US7202287B2, “Method and compositions” (Arch Chemicals, Inc., priority 2000, dated 2007).
# Assays:
# [1] = tested on: Pseudomonas aeruginosa NCIB 10421; assay: Minimum inhibitory concentration against mono-cultures, microtitre plate doubling dilutions in nutrient broth; format: cell-based; conditions: 24 hours at 37° C., visual inspection
# Procedure: Pseudomonas aeruginosa NCIB 10421 Bacteria were grown to stationary phase (18 h) in nutrient broth (approximately 10^9 organisms per ml). A 0.1% (v/v) inoculum was used to seed fresh medium and 100 μl of the inoculum was then added to each well of a microtitre plate, except for the first well which contained 200 μl. Using doubling dilutions, the concentration of the compounds under investigation were varied in each well along the ordinate axis. The presence or absence of growth was recorded by visual inspection after 24 hours incubation at 37° C. […]
# [2] = tested on: Aspergillus Niger IMI 17454; assay: Minimum inhibitory concentration against monocultures (fungus); format: cell-based; conditions: Example 3, Table 5; biocide alone
# Procedure: Aspergillus Niger IMI 17454 The fungus was maintained on malt agar. The MICs were calculated as described previously in examples 1 and 2.
SMILES,"MIC (ppm) against Ps. aeruginosa ([1]; Example 1, Table 1, biocide alone)","MIC (ppm) against Ps. aeruginosa ([1]; Example 2, Table 3, biocide alone)",MIC (ppm) against Aspergillus Niger [2]
"O=c1[nH]sc2ccccc12 [BIT, 1,2-benzisothiazolin-3-one]",32 ppm,,
"CCCCn1sc2ccccc2c1=O [Butyl BIT, 2n-butyl-1,2-benzisothiazolin-3-one]",,125 ppm,8 ppm
